Converted amounts (≈) assume the structure as drawn. Like-named read-outs stand apart in the source and are kept apart here.
Assays:
[1] = tested on: Moloney Sarcoma Virus (MSV); assay: Inhibition of MSV-M foci formation in mouse embryo fibroblasts; type: cell-based; details: Fibroblast, 120 h, 3 days treatment
Protocol: (§1) Mouse embryo fibroblasts (MEF) were plated on 35 mm. Falcon plastic dishes and infected 24 hours later with Moloney Sarcoma Virus (MSV) in the presence of DEAE-dextran (25 μg./ml.). The samples were then treated for 3 days with different concentrations of the compounds of the invention. The number of foci of transformed cells was microscopically determined 5 days after the infection. Uninfected MEF were similarly treated and at the end of the experiment, the cells were counted in an haemocytometer. In all the experiments, the cells were incubated in a 5% CO2 incubator at 37° C.
(§2) For use in these tests the compounds were dissolved in distilled water or in 5% ethyl alcohol in distilled water and then diluted in culture medium.
The results of these tests are reported in Table I in terms of ID50 values (Inhibiting Dose 50%), calculated on dose-effects lines.

Solid Sarcoma 180 = assay: Antitumor activity and toxicity on solid Sarcoma 180 in CD 1 mice; type: in vivo; details: for Tumor Volume T/C %: 11th day; for Toxic Deaths: deaths/total
Protocol: (§3) The toxicity of the test compounds was evaluated by macroscopic autoptic examination mainly in terms of reduction in spleen size. The comparison of the effectiveness of the test compounds is based on the maximum increase in median survival time, as compared to untreated controls, over the dose range used. The number of Long Term Survivors (LTS) refers to tumor-free mice at the end of the experiment (60 days). Solid Sarcoma 180 was implanted subcutaneously by trocar in the flank of CD 1 mice according to standard methods. The mice were treated i.v. for 5 consecutive days, starting 1 day after the tumor implant. On the 11th day the tumor volume was measured by means of a caliper and evaluated according to the formula (a^2 × b)/2, a and b being the minimum and the maximum diameters respectively.

[2] = Antitumor activity and toxicity on ascites Sarcoma 180 in CD 1 mice; type: in vivo; details: mouse, in vivo, ip, read-out: % Toxic Deaths
Protocol: (§4) The antitumor activity of the compounds of the invention was tested on ascites Sarcoma 180.
(§5) Three month old CD 1 mice were used. Sarcoma 180 ascites cells were inoculated intraperitoneally (10^6 cells/mouse). For use in these tests, the compounds were dissolved in distilled water or in 5% ethyl alcohol in distilled water, then diluted with Ringers solution and administered i.p. 1 day after the tumor implant (10 ml./kg. of body weight).
as §3

ascites Sarcoma 180 = assay: as above; type: in vivo; details: for % LTS: 60 days; for LTS (Long Term Survivors after 60 days): survivors/total; for Toxic Deaths: deaths/total
Protocol: as §4, §5, §3

[3] = Proliferation of uninfected mouse embryo fibroblasts (MEF); type: cell-based; details: mouse, mouse embryo fibroblasts; calculated on dose-effects lines; uninfected MEF, 3 days treatment; read-out: MEF proliferation ID 50 (Inhibiting Dose 50%)
Protocol: as §1, §2

Mouse Embryo Fibroblasts = assay: as above; type: cell-based; details: Mus musculus, Fibroblast, 72 h, uninfected MEF, 3 days treatment, read-out: MEF No. of cells
Protocol: as §1, §2

[4] = 12.5 mg./kg. i.v. for 5 consecutive days
[5] = 25 mg./kg. i.v. for 5 consecutive days
[6] = 50 mg./kg. i.v. for 5 consecutive days
[7] = 0.2 mg./kg. i.p. 1 day after tumor implant
[8] = 1 mg./kg. i.p. 1 day after tumor implant
[9] = 5 mg./kg. i.p. 1 day after tumor implant
[10] = 12.5 mg./kg. i.p. 1 day after tumor implant
[11] = 25 mg./kg. i.p. 1 day after tumor implant
[12] = 50 mg./kg. i.p. 1 day after tumor implant
[13] = 75 mg./kg. i.p. 1 day after tumor implant
[14] = 100 mg./kg. i.p. 1 day after tumor implant
[15] = 200 mg./kg. i.p. 1 day after tumor implant

Compound: COc1cccc2c1C(=O)c1c(O)c3c(c(O)c1C2=O)C[C@@](O)(C(=O)CN(CCO)CCO)C[C@@H]3O[C@H]1C[C@H](N)[C@H](O)[C@H](C)O1 [14-diethanolaminodaunomycin]
- IC50 ([1]; calculated on dose-effects lines, read-out: MSV-M foci ID 50 (Inhibiting Dose 50%)): 0.052 µg/mL (≈ 0.0825 µM)
- activity at 0.0062 µg/mL ([1]; dose 0.0062 μg/ml, foci counted 5 days after infection, read-out: MSV-M No. of foci): 75%
- activity at 0.025 µg/mL ([1]; dose 0.0250 μg/ml, foci counted 5 days after infection, read-out: MSV-M No. of foci): 73%
- activity at 0.1 µg/mL ([1]; dose 0.1 μg/ml, foci counted 5 days after infection, read-out: MSV-M No. of foci): 21%
- activity at 0.4 µg/mL ([1]; dose 0.4 μg/ml, foci counted 5 days after infection, read-out: MSV-M No. of foci): 0%
- Tumor Volume T/C % (Solid Sarcoma 180; [4]): 82%
- Toxic Deaths (Solid Sarcoma 180; [4]): 1/5
- Tumor Volume T/C % (Solid Sarcoma 180; [5]): 66%
- Toxic Deaths (Solid Sarcoma 180; [5]): 1/5
- Tumor Volume T/C % (Solid Sarcoma 180; [6]): 44%
- Toxic Deaths (Solid Sarcoma 180; [6]): 0/5
- inhibition of tumor growth on solid Sarcoma 180 (Solid Sarcoma 180; at non-toxic doses): marked inhibition of tumor growth, at non-toxic doses
- mortality ([2]; 0.2 mg./kg. i.p.): 0%
- mortality ([2]; 1 mg./kg. i.p.): 0%
- mortality ([2]; 5 mg./kg. i.p.): 0%
- mortality ([2]; 12.5 mg./kg. i.p.): 0%
- mortality ([2]; 25 mg./kg. i.p.): 0%
- mortality ([2]; 50 mg./kg. i.p.): 0%
- mortality ([2]; 75 mg./kg. i.p.): 10%
- mortality ([2]; 100 mg./kg. i.p.): 42%
- mortality ([2]; 200 mg./kg. i.p.): 100%
- T/C (median survival time, % over untreated controls) (ascites Sarcoma 180; [7]): 106%
- % LTS (ascites Sarcoma 180; [7]): 0%
- LTS (Long Term Survivors after 60 days) (ascites Sarcoma 180; [7]): 0/10
- Toxic Deaths (ascites Sarcoma 180; 0.2 mg./kg. i.p.): 0/10
- T/C (median survival time, % over untreated controls) (ascites Sarcoma 180; [8]): 103%
- % LTS (ascites Sarcoma 180; [8]): 0%
- LTS (Long Term Survivors after 60 days) (ascites Sarcoma 180; [8]): 0/10
- Toxic Deaths (ascites Sarcoma 180; 1 mg./kg. i.p.): 0/10
- T/C (median survival time, % over untreated controls) (ascites Sarcoma 180; [9]): 124%
- % LTS (ascites Sarcoma 180; [9]): 0%
- LTS (Long Term Survivors after 60 days) (ascites Sarcoma 180; [9]): 0/10
- Toxic Deaths (ascites Sarcoma 180; 5 mg./kg. i.p.): 0/10
- T/C (median survival time, % over untreated controls) (ascites Sarcoma 180; [10]): 181%
- % LTS (ascites Sarcoma 180; [10]): 0%
- LTS (Long Term Survivors after 60 days) (ascites Sarcoma 180; [10]): 0/10
- Toxic Deaths (ascites Sarcoma 180; 12.5 mg./kg. i.p.): 0/10
- T/C (median survival time, % over untreated controls) (ascites Sarcoma 180; [11]): 187%
- % LTS (ascites Sarcoma 180; [11]): 20%
- LTS (Long Term Survivors after 60 days) (ascites Sarcoma 180; [11]): 4/20
- Toxic Deaths (ascites Sarcoma 180; 25 mg./kg. i.p.): 0/20
- T/C (median survival time, % over untreated controls) (ascites Sarcoma 180; [12]): 175%
- % LTS (ascites Sarcoma 180; [12]): 23%
- LTS (Long Term Survivors after 60 days) (ascites Sarcoma 180; [12]): 4/17
- Toxic Deaths (ascites Sarcoma 180; 50 mg./kg. i.p.): 0/17
- T/C (median survival time, % over untreated controls) (ascites Sarcoma 180; [13]): 170%
- % LTS (ascites Sarcoma 180; [13]): 0%
- LTS (Long Term Survivors after 60 days) (ascites Sarcoma 180; [13]): 0/10
- Toxic Deaths (ascites Sarcoma 180; 75 mg./kg. i.p.): 1/10
- T/C (median survival time, % over untreated controls) (ascites Sarcoma 180; [14]): 83%
- % LTS (ascites Sarcoma 180; [14]): 0%
- LTS (Long Term Survivors after 60 days) (ascites Sarcoma 180; [14]): 0/7
- Toxic Deaths (ascites Sarcoma 180; 100 mg./kg. i.p.): 3/7
- T/C (median survival time, % over untreated controls) (ascites Sarcoma 180; [15]): 25%
- % LTS (ascites Sarcoma 180; [15]): 0%
- LTS (Long Term Survivors after 60 days) (ascites Sarcoma 180; [15]): 0/7
- Toxic Deaths (ascites Sarcoma 180; 200 mg./kg. i.p.): 7/7
- IC50 at 72 h [3]: 0.13 µg/mL (≈ 0.206 µM)
- activity at 0.0062 µg/mL (Mouse Embryo Fibroblasts; dose 0.0062 μg/ml): 100%
- activity at 0.025 µg/mL (Mouse Embryo Fibroblasts; dose 0.0250 μg/ml): 95%
- activity at 0.1 µg/mL (Mouse Embryo Fibroblasts; dose 0.1 μg/ml): 56%
- activity at 0.4 µg/mL (Mouse Embryo Fibroblasts; dose 0.4 μg/ml): 25%

— patent US4024224A, “14-Aminodaunomycins, their preparation and use” (priority 1974, dated 1977)
